Test results published in ChEMBL document CHEMBL6087460, “Generating a Peptide Library Using the Repeats of Amino Acid Scaffolds Created by Sliding the Framework of a 7-mer Human Chemerin Segment and Discovery of Potent Antibacterial and Antimycobacterial Peptides” (J Med Chem, 2025).
Active and inactive are the calls of the source. No cut-off for these calls is given here. Where a SMILES comes first, the peptide text is derived from it.

Legend:
[1] = Drug localization in cell membrane of Escherichia coli ATCC 25922 at 3 times MIC by confocal microscopy; format: ADME, cell membranes
[2] = Drug localization in cytoplasm of Mycobacterium smegmatis at 1 ug/ml by confocal microscopy; format: ADME, subcellular; settings: mycolicibacterium smegmatis; dose 1 µg/ml
[3] = Retention time of compound by RP-HPLC method; format: physicochemical
[4] = Hemolytic activity in human RBC at 100 uM measured after 40 mins by absorbance based assay relative to control; format: toxicity, cell-based, Erythrocyte
[5] = test system: Escherichia coli; assay: Antibacterial activity against Escherichia coli ATCC 25922 incubated for 16 to 18 hrs by broth dilution assay; format: functional; settings: time 16-18 hrs
[6] = test system: Klebsiella pneumoniae; assay: Antibacterial activity against Klebsiella pneumoniae ATCC 27736 incubated for 16 to 18 hrs by broth dilution assay; format: functional; settings: time 16-18 hrs
[7] = test system: Pseudomonas aeruginosa; assay: Antibacterial activity against Pseudomonas aeruginosa ATCC BAA-427 incubated for 16 to 18 hrs by broth dilution assay; format: functional; settings: time 16-18 hrs
[8] = test system: Staphylococcus aureus; assay: Antibacterial activity against Staphylococcus aureus ATCC 25923 incubated for 16 to 18 hrs by broth dilution assay; format: functional; settings: time 16-18 hrs
[9] = test system: Bacillus subtilis; assay: Antibacterial activity against Bacillus subtilis 6633 incubated for 16 to 18 hrs by broth dilution assay; format: functional; settings: time 16-18 hrs
[10] = test system: Staphylococcus aureus; assay: Antibacterial activity against methicillin-resistant Staphylococcus aureus 33591 incubated for 16 to 18 hrs by broth dilution assay; format: functional; settings: time 16-18 hrs
[11] = test system: Staphylococcus aureus; assay: Antibacterial activity against methicillin-resistant Staphylococcus aureus BAA-44 incubated for 16 to 18 hrs by broth dilution assay; format: functional; settings: time 16-18 hrs
[12] = Hemolytic activity in human RBC measured after 40 mins by absorbance based assay; format: toxicity, cell-based, Erythrocyte; settings: human red blood cells
[13] = test system: Escherichia coli; assay: Bactericidal activity against Escherichia coli ATCC 25922 incubated for 16 to 18 hrs; format: functional; settings: time 16-18 hrs
[14] = test system: Escherichia coli; assay: Antibacterial activity against Escherichia coli ATCC 25922 incubated for 16 to 18 hrs in presence of 10 percent human serum by broth dilution assay; format: functional; settings: time 16-18 hrs
[15] = test system: Staphylococcus aureus; assay: Bactericidal activity against Staphylococcus aureus ATCC 25923 incubated for 16 to 18 hrs; format: functional; settings: time 16-18 hrs
[16] = test system: Staphylococcus aureus; assay: Antibacterial activity against Staphylococcus aureus ATCC 25923 incubated for 16 to 18 hrs in presence of 10 percent human serum by broth dilution assay; format: functional; settings: time 16-18 hrs
[17] = test system: 3T3-L1; assay: (§1) Cytotoxicity against mouse 3T3-L1 cells assessed as cell viability at 100 uM incubated for 24 hrs by MTT assay relative to control; format: toxicity, cell-based; settings: 3t3-l1, 24 h, 100 µM
[18] = test system: L6; assay: (§2) Cytotoxicity against rat L6 cells assessed as cell viability at 100 uM incubated for 24 hrs by MTT assay relative to control; format: toxicity, cell-based; settings: l6, 24 h, 100 µM
[19] = test system: Escherichia coli; assay: Bactericidal activity against Escherichia coli ATCC 25922 at MIC incubated for 60 mins by time kill assay; format: functional, organism-based
[20] = test system: Staphylococcus aureus; assay: Bactericidal activity against Staphylococcus aureus ATCC 25923 at MIC incubated for 60 mins by time kill assay; format: functional, organism-based
[21] = test system: Escherichia coli; assay: Induction of membrane depolarization in Escherichia coli ATCC 25922 by diSC3-5 dye based analysis; format: functional, organism-based
[22] = test system: Staphylococcus aureus; assay: Induction of membrane depolarization in Staphylococcus aureus ATCC 25923 by diSC3-5 dye based analysis; format: functional, organism-based
[23] = test system: Escherichia coli; assay: Disruption of plasma membrane integrity in Escherichia coli ATCC 25922 by SYTOX-Green uptake assay; format: functional, organism-based
[24] = test system: Staphylococcus aureus; assay: Disruption of plasma membrane integrity in Staphylococcus aureus ATCC 25923 by SYTOX-Green uptake assay; format: functional, organism-based
[25] = test system: Escherichia coli; assay: Disruption of membrane integrity in Escherichia coli ATCC 25922 by PI staining based analysis; format: functional, organism-based
[26] = test system: Staphylococcus aureus; assay: Disruption of membrane integrity in Staphylococcus aureus ATCC 25923 by PI staining based analysis; format: functional, organism-based
[27] = Hemolytic activity in human RBC assessed as disruption of membrane integrity by Alexa Fluor-Annexin V staining based analysis; format: toxicity, cell-based; settings: erythrocyte
[28] = Stability in 10 percent human serum assessed as compound remaining measured after 60 mins by RP-HPLC analysis; format: ADME, cell-free; settings: 10% human serum, read-out: Stability
[29] = Toxicity in BALB/c mouse assessed as animal survival at 15 mg/kg, iv administered thrice at 2 hrs interval measured after 7 days; format: organism-based; settings: in vivo, 168 h, time 7 day
[30] = Toxicity in BALB/c mouse assessed as change in AST level at 15 mg/kg, iv administered thrice at 2 hrs interval measured after 7 days; format: organism-based; settings: in vivo, 168 h, time 7 day
[31] = Toxicity in BALB/c mouse assessed as change in ALT level at 15 mg/kg, iv administered thrice at 2 hrs interval measured after 7 days; format: organism-based; settings: in vivo, 168 h, time 7 day
[32] = Toxicity in BALB/c mouse infected with Escherichia coli ATCC 25922 assessed as animal survival at 5 mg/kg, iv administered thrice at 1,3 and 5 hrs post-infection measured after 7 days; format: organism-based; settings: in vivo, 168 h, time 7 day
[33] = Toxicity in BALB/c mouse infected with Escherichia coli ATCC 25922 assessed as animal survival at 2.5 mg/kg, iv administered thrice at 1,3 and 5 hrs post-infection measured after 7 days; format: organism-based; settings: in vivo, 168 h, time 7 day
[34] = test system: Escherichia coli; assay: Antibacterial activity against Escherichia coli ATCC 25922 infected in BALB/c mouse assessed as bacterial load in blood at 5 mg/kg, iv administered thrice at 1,3 and 5 hrs post-infection measured after 24 hrs post-last dose (Rvb ~ 4 x10^6 CFU/mL); format: functional; settings: time 29 hrs
[35] = test system: Escherichia coli; assay: Antibacterial activity against Escherichia coli ATCC 25922 infected in BALB/c mouse assessed as bacterial count in liver at 5 mg/kg, iv administered thrice at 1,3 and 5 hrs post-infection measured after 24 hrs post-last dose (Rvb ~ 2.3 x10^7 CFU/mL); format: functional; settings: time 29 hrs
[36] = test system: Escherichia coli; assay: Antibacterial activity against Escherichia coli ATCC 25922 infected in BALB/c mouse assessed as bacterial count in spleen at 5 mg/kg, iv administered thrice at 1,3 and 5 hrs post-infection measured after 24 hrs post-last dose (Rvb ~ 1.9 x10^7 CFU/mL); format: functional; settings: time 29 hrs
[37] = test system: Escherichia coli; assay: Antibacterial activity against Escherichia coli ATCC 25922 infected in BALB/c mouse assessed as bacterial count in kidney at 5 mg/kg, iv administered thrice at 1,3 and 5 hrs post-infection measured after 24 hrs post-last dose (Rvb ~ 1.8 x10^7 CFU/mL); format: functional; settings: time 29 hrs
[38] = test system: Escherichia coli; assay: Antibacterial activity against Escherichia coli ATCC 25922 infected in BALB/c mouse assessed as bacterial count in blood at 5 mg/kg, iv administered thrice at 1,3 and 5 hrs post-infection measured after 24 hrs post-last dose (Rvb ~ 9.6 x10^6 CFU/mL); format: functional; settings: time 29 hrs
[39] = test system: Mycolicibacterium smegmatis; assay: Antitubercular activity against Mycobacterium smegmatis incubated for 24 hrs by rezasurin dye based assay; format: functional
[40] = as §1; format: toxicity, cell-based; settings: 3T3-L1 cells, read-out: Activity
[41] = as §2; format: toxicity, cell-based; settings: L6 cells, read-out: Activity
[42] = test system: Escherichia coli; assay: Bactericidal activity against Escherichia coli ATCC 25922 at MIC incubated for 45 mins by time kill assay; format: functional, organism-based
[43] = test system: Staphylococcus aureus; assay: Bactericidal activity against Staphylococcus aureus ATCC 25923 at MIC incubated for 45 mins by time kill assay; format: functional, organism-based
[44] = test system: Escherichia coli; assay: Bactericidal activity against Escherichia coli ATCC 25922 at MIC incubated for 30 mins by time kill assay; format: functional, organism-based

CC(C)C[C@H](NC(=O)[C@@H](NC(=O)c1cc(C(=O)O)ccc1-c1c2ccc(=[N+](C)C)cc-2oc2cc(N(C)C)ccc12)C(C)C)C(=O)NCC(=O)N[C@@H](CCCNC(=N)N)C(=O)N[C@H](C(=O)N[C@@H](CC(C)C)C(=O)NCC(=O)N[C@@H](CCCNC(=N)N)C(=O)N[C@H](C(=O)N[C@@H](CC(C)C)C(=O)NCC(=O)N[C@@H](CCCNC(=N)N)C(=O)N[C@H](C(=O)N[C@@H](CC(C)C)C(=O)NCC(=O)N[C@@H](CCCNC(=N)N)C(=O)O)C(C)C)C(C)C)C(C)C.[Cl-] (HELM PEPTIDE1{[CN(C)c1ccc2c(-c3ccc(C(=O)O)cc3C(=O)[*:2])c3ccc(=[N+](C)C)cc-3oc2c1].V.L.G.R.V.L.G.R.V.L.G.R.V.L.G.R}$$$$V2.0)
Drug uptake [1]: Active
Drug uptake [2]: Active

H-RLRLRLRLRL-OH
Retention_time [3]: 15.27 min
Activity ([4]; erythrocyte, 40 min, 100 µM): Non-toxic
MIC [5]: 2.3 µM
MIC [6]: 18.3 µM
MIC [7]: 18.3 µM
MIC [8]: 4.6 µM
MIC [9]: 4.6 µM
MIC [10]: 18.3 µM
MIC [11]: 18.3 µM
HC50 at 40 min [12]: 1.82 mM
MBC [13]: 4.6 µM
MIC [14]: 4.6 µM
MBC [15]: 9.2 µM
MIC [16]: 9.2 µM
Activity [17]: Toxic
Activity [18]: Toxic
Activity [19]: Active; Exhibited Rapid Kinetics
Activity [20]: Active; Exhibited Rapid Kinetics
Activity [21]: Active
Activity [22]: Active
Activity [23]: Active
Activity [24]: Active
Activity [25]: Active
Activity [26]: Active
Activity [27]: Non-toxic
remaining at 1 h [28]: 70%
Activity [29]: Toxic
Activity [30]: Non-toxic
Activity [31]: Non-toxic
Survival [32]: 80%
Survival [33]: 20%
Activity [34]: 7700 CFU/ml
Activity [35]: 2.7 10^4CFU/ml
Activity [36]: 6.8 10^4CFU/ml
Activity [37]: 2.6 10^4CFU/ml
Activity [38]: 2.4 10^4CFU/ml
MIC [39]: 10 µM

CC(C)C[C@H](NC(=O)[C@H](CCCNC(=N)N)NC(=O)CNC(=O)[C@@H](NC(=O)[C@H](CC(C)C)NC(=O)[C@H](CCCNC(=N)N)NC(=O)CNC(=O)[C@@H](NC(=O)[C@H](CC(C)C)NC(=O)[C@H](CCCNC(=N)N)NC(=O)CNC(=O)[C@@H](NC(=O)[C@H](CC(C)C)NC(=O)[C@H](CCCNC(=N)N)NC(=O)CNC(=O)c1cc(C(=O)O)ccc1-c1c2ccc(=[N+](C)C)cc-2oc2cc(N(C)C)ccc12)C(C)C)C(C)C)C(C)C)C(=O)N[C@H](C(=O)O)C(C)C.[Cl-] (HELM PEPTIDE1{[CN(C)c1ccc2c(-c3ccc(C(=O)O)cc3C(=O)[*:2])c3ccc(=[N+](C)C)cc-3oc2c1].G.R.L.V.G.R.L.V.G.R.L.V.G.R.L.V}$$$$V2.0)
Drug uptake [1]: Active
Drug uptake [2]: Active

H-RLVRLVRLVRLVRLV-OH
Retention_time [3]: 20.78 min
hemolysis at 40 min, 100 µM ([4]; human red blood cells, read-out: Activity): 20%
MIC [5]: 1.7 µM
MIC [6]: 1.7 µM
MIC [7]: 6.7 µM
MIC [8]: 1.7 µM
MIC [9]: 1.7 µM
MIC [10]: 3.4 µM
MIC [11]: 1.7 µM
HC50 at 40 min [12]: 0.232 mM
MBC [13]: 6.8 µM
MIC [14]: 6.8 µM
MBC [15]: 3.4 µM
MIC [16]: 3.4 µM
Activity [17]: Toxic
Activity [18]: Toxic
Activity [19]: Active; Exhibited Rapid Kinetics
Activity [20]: Active; Exhibited Rapid Kinetics
Activity [21]: Active
Activity [22]: Active
Activity [23]: Active
Activity [24]: Active
Activity [25]: Active
Activity [26]: Active
Activity [27]: Non-toxic
MIC [39]: 5 µM

H-KVLKVLKVLKVL-OH
Retention_time [3]: 19.44 min
MIC [5]: 1.1 µM
MIC [6]: 4.5 µM
MIC [7]: 9 µM
MIC [8]: 18.1 µM
MIC [9]: 9 µM
MIC [10]: 9 µM
MIC [11]: 2.3 µM
HC50 at 40 min [12]: 2 mM
MBC [13]: 2.2 µM
MIC [14]: 2.2 µM
MBC [15]: 18.1 µM
MIC [16]: 36.2 µM
viability at 24 h, 100 µM [40]: 75%
viability at 24 h, 100 µM [41]: 75%
Activity [42]: Active
Activity [43]: Active
Activity [44]: Active; Emerged As Swiftest Molecule
Activity [21]: Active
Activity [22]: Active
Activity [23]: Active
Activity [24]: Active
Activity [25]: Active
Activity [26]: Active
Activity [27]: Non-toxic
Activity [29]: Non-toxic
Activity [30]: Non-toxic
Activity [31]: Non-toxic
Survival [32]: 80%
Survival [33]: 40%
Activity [34]: 3400 CFU/ml
Activity [35]: 9100 CFU/ml
Activity [36]: 7800 CFU/ml
Activity [37]: 2.9 10^4CFU/ml
Activity [38]: 2656 CFU/ml
MIC [39]: > 10 µM
